Assay results: patent publication EP0880540B1, “17-BETA-CYCLOPROPYL(AMINO/OXY) 4-AZA STEROIDS AS ACTIVE INHIBITORS OF TESTOSTERONE 5-ALPHA-REDUCTASE AND C17-20-LYASE” (Aventis Pharmaceuticals Inc., priority 1996, dated 1997)

Assays:
[1] = target: T1, cynomolgus monkey C17,20 lyase (Macaca fascicularis, UniProt Q2XVA1); assay: In vitro C17,20 lyase assay, testicular microsomes; assay type: biochemical; details: mean of duplicates
T1 construct: microsomal preparations of the enzyme from testicular tissue; from tissue; host or cells: cynomolgus monkey testes, microsomes
T1 sequence (Q2XVA1 1-508): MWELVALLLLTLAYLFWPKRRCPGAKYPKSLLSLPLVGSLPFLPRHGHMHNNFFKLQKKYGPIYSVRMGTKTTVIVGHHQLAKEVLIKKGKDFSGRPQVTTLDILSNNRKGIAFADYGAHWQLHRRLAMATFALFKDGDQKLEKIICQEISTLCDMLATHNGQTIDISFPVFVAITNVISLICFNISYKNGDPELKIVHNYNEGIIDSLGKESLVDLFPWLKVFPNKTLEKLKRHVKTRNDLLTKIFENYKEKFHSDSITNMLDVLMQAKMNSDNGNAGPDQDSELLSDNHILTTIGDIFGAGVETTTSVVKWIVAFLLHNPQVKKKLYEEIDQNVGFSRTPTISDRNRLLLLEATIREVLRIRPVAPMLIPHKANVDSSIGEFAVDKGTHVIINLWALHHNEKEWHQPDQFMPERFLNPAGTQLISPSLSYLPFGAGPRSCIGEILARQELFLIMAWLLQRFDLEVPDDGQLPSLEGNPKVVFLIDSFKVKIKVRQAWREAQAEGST
Description: In vitro C17,20 lyase assays: Compounds were tested for inhibition of cynomolgus monkey C17,20 lyase in vitro using microsomal preparations of the enzyme from testicular tissue. Testes were removed from anesthetized animals and flash frozen in liquid nitrogen. Microsomes were isolated as described in Schatzman et al., Anal. Biochem. 175, 219-226 (1988). The compound to be tested was dissolved in dimethyl sulfoxide and diluted in 0.05 M potassium phosphate buffer, pH 7.4, to give the desired concentrations of test compound, in an amount which contributed 0.1% v/v DMSO to the total assay volume. Assays contained 0.05 M potassium phosphate buffer, pH 7.4, an NADPH regenerating system (1 mM NADPH, 5 mM glucose-6-phosphate, 1 IU/mL glucose-6-phosphate dehydrogenase), test compound, substrate and microsomal protein in a total volume of 0.2 mL. Control assays contained all components, including dimethyl sulfoxide, but not test ccmpound. All assays were performed in duplicate. The test compound was incubated with 20 to 62 µg/mL microsomal protein, buffer, and the NADPH regenerating system described above at 34°C for 0 or 40 minutes. Aliquots of 180 µL were then removed and assayed for enzyme activity by addition to 7-[^3H]-17α-hydroxypregnenolone (11.2 mCi/mmole; 0.2 µCi per assay) plus unlabeled 17α-hydroxypregnenolone dissolved in DMSO, contributing 2.5% v/v to the final assay mix, and phosphate buffer to give a total substrate concentration of 0.05 µM (=Km) per assay and subsequent incubation at 34°C for 6 minutes. Each assay was terminated by addition of 5 mL of chloroform:methanol (2:1). Carrier steroids representing substrates and produces (17α-hydroxypregnenolone, dehydroepiandrosterone, and androst-5-ene-3β,17β-diol) and 0.8 mL of distilled, deionized water were also added at this time. The steroids were extracted by the method of Moore and Wilson (Methods in Enzymol., eds. O. Malley, B.W. and Hardman, J.G. 36, 1975, pp. 466-474). The organic phase containing the steroids was evaporated using nitrogen gas, the residues dissolved in 18% tetrahydrofuran (v/v) in hexane, and the steroids were separated by HPLC on a Si60 (5 µm) column (250 x 4 mm) using a gradient of 18-22% tetrahydrofuran (v/v) in hexane. Radioactivity in the steroid peaks was measured using a Radiomatic® Model ES or Model A515 Flo-One® detector.
The enzyme activity for each assay was calculated from the percent conversion of substrate to products, and the results were expressed as percent inhibition of control. The following results were obtained, wherein the values indicated are the mean of duplicate determinations: Table 1: […]

Dunning H Tumor = assay: Dunning H tumor growth in rats; assay type: in vivo, male Copenhagen rats; details: MDL 105831 15 mg/kg/day PO, MDL 15910 50 mg/kg/day PO
Text: As described in J.T. Isaacs & D.S. Coffey, Cancer Res. 41:5070-5075 (1981); W.J. Ellis & J.T. Issacs, Cancer Res. 45:6041-6050 (1985); T.W. Bedding & A.V. Schally, The Prostate 6:219-232 (1985) and P.E. Juniewicz et al. The Prostate 18:105-115 (1991), male Copenhagen rats were obtained from HARLAN-SPRAGUE-DAWLEY Inc. (Indianapolis, IN), and were individually housed in suspended wire cages and provided laboratory rodent chow (Purina 5001 pellets, Purina Mills, St. Louis, MO) and deionized water ad libum. The rats were anesthetized using sodium pentobarbital and the hair was clipped from the back dorsal area. Tumors from donor Copenhagen rats were cut into fragments of 10 mm^3 and implanted subcutaneously (one site per rat) into the prepared dorsal area.
Animals were selected (105 days post implantation) for the treatment phase based on tumor size. Ten animals were anesthetized with sodium pentobarbital and bilaterally castrated. The remaining animals were assigned to treatment groups (ten per group) based on mean group tumor size. Animals were kept separate throughout the study. The tested compounds were prepared in solution or suspension in a lecithin vehicle (L-α-phosphatidylcholine type XV-E) containing methylparaben and propylparaben. All treatments were performed by oral gavage (per os) at 2 cc/kg each day of study. Tumor size and rat body weights were recorded every seven days over a period of 35 days. Twenty-four hours after the last treatment animals were euthenized by CO2 and the tumors, prostate, seminal vesicles and testes were removed and weighed. In Table 4, average tumor growth is determined from the corrected group means over a 35 day period after treatment was started. […] The animals eliminated from the calculation of the corrected means were in Figure 6, animals 8, 9, 10; in Figure 7, animals 18, 19 and 20; in Figure 8, animals 27, 28, 29 and 30; and in Figure 9, animals 37, 39 and 40. The castrated controls in Figure 10 present a different problem. Here it is believed that the different tumor volumes observed throughout the group is attributable to the different sizes at the beginning of the study. Since the mean variance here is clearly attributable to factors other than the effect of the castration itself, animals 47, 48, 49 and 50 were deleted from the corrected mean. Of these, animal 47 died during the treatment period.
Table 4 indicates the average daily growth rate, measured from the corrected mean tumor size on day 35 and day 0, comparing MDL 105831 and flutamide (MDL 15910), a known androgen receptor antagonist. […]

PC-82 Human Tumor = assay: PC-82 human tumor growth in nude mice; assay type: in vivo, male nude mice; details: MDL 103432 and MDL 105831 50 mg/kg B.I.D., MDL 15910 15 mg/kg B.I.D., per os
Text: As described in van Steenbrugge, G.J. et al., J. Urol 131: 812-817 (1984) van Steenbrugge G.J. et al., The Prostate 11: 195-210 (1987) and Redding, T.W. et al., Cancer Research 52, 2538-2544 (1992), male nude mice (Hsd:athymic, Nude-nu) were obtained from Harlan Sprague Dawley. Mice were housed in sterilized micro-isolators and fed autoclaved ABLE® rodent chow (Purina Mills Inc., St. Louis, MO) and deionized water, adlibitum. Tumor-donating mice were first anesthetized using sodium pentobarbital and then sacrificed by cervical dislocation. The tumor was subsequently excised and placed in a petri dish containing ice-cold Hanks balanced salt solution. Tumors were cut into 2-3 mm cubes for implantation. Recipient animals were first anesthetized with 50 mg/kg pentobarbital, then implanted, by use of a trocar, with tumor fragments (one per mouse) in the dorsal area. Animals were separated into two control groups, one with vehicle alone and the other castrated, and the treatment groups, where n is the number of animals in each group.
Animals were selected for treatment groups based on tumor size. Each test compound was prepared as a solution or suspension in a lecithin vehicle (L-α-phosphatidylcholine type XV-E) containing methylparaben and propylparaben at a dose volume of 10 cc/kg. Animals were treated for 42 days by oral gavage (per os) seven days per week. Twenty-four hours after the last treatment the animals were euthenized by CO2 and tumors were removed and weighed. During the study period, mice were weighed and palpated weekly for tumors. In Table 5, average tumor growth is determined from the corrected group means over a 28 day period after treatment was started. […] The following animal data was deleted before computation of the corrected mean data in Table 5, Fig. 1: animals 4 and 44; Fig. 2: animals 10, 38 and 42; Fig. 3: Animal 39; Fig. 4: Animals 8, 9 and 49; Fig. 5: Animals 37 and 40 and 41.
Table 5 illustrates the average tumor growth in animals treated with 4-aza-17β-(cyclopropyloxy)-5α-androstan-3-one (MDL 103432; 50 mg/kg B.I.D.) 4-aza-17β-(cyclopropylamino)-androst-5(6)-en-3-one (MDL 105831; 50 mg/kg B.I.D.) and flutamide (MDL 15,910; 15 mg/kg B.I.D.), a known androgen receptor antagonist. The average growth rate of each tested compound relative to the vehicle and castrated controls is consistent with the in vivo inhibition of androgens.

SMILES: CN1C(=O)CC[C@@]2(C)C1=CC[C@H]1[C@@H]3CC[C@H](OC4CC4)[C@@]3(C)CC[C@@H]12 (stereo in doubt) [MDL 104,313, 17β-Cyclopropyloxy-4-methyl-4-aza-androst-5-en-3-one]
- inhibition at 0.1 µM ([1]; preincubation 0 min): -18.4%
- inhibition at 0.1 µM ([1]; preincubation 40 min): -8.7%
- inhibition at 1 µM ([1]; preincubation 0 min): 23.8%
- inhibition at 1 µM ([1]; preincubation 40 min): 39.9%
- inhibition at 10 µM ([1]; preincubation 0 min): 63.6%
- inhibition at 10 µM ([1]; preincubation 40 min): 70.2%

SMILES: CC12C=CC(=O)N[C@@H]1CCC1C2CCC2(C)C1CC[C@@H]2OC1CC1 (stereo partly drawn) [MDL 103,129, 17β-Cyclopropyloxy-4-aza-5α-androst-1-en-3-one]
- inhibition at 0.1 µM ([1]; preincubation 0 min): 6.4%
- inhibition at 0.1 µM ([1]; preincubation 40 min): 18.3%
- inhibition at 1 µM ([1]; preincubation 0 min): 40.7%
- inhibition at 1 µM ([1]; preincubation 40 min): 46.9%
- inhibition at 10 µM ([1]; preincubation 0 min): 77.3%
- inhibition at 10 µM ([1]; preincubation 40 min): 84.3%

SMILES: CC(C)C(=O)Nc1ccc([N+](=O)[O-])c(C(F)(F)F)c1 [MDL 15910, N-(3-Trifluoromethyl-4-nitro-phenyl)-isobutyramide, reference compound]
- Tumor Growth in Dunning H Rat, Day 0 (Dunning H Tumor; Day 0 (baseline), corrected group mean): 317.00 mm^3
- Tumor Growth in Dunning H Rat, Day 7 (Dunning H Tumor; Day 7, corrected group mean): 604.64 mm^3
- Tumor Growth in Dunning H Rat, Day 16 (Dunning H Tumor; Day 16, corrected group mean): 877.86 mm^3
- Tumor Growth in Dunning H Rat, Day 21 (Dunning H Tumor; Day 21, corrected group mean): 851.29 mm^3
- Tumor Growth in Dunning H Rat, Day 29 (Dunning H Tumor; Day 29, corrected group mean): 1313.57 mm^3
- Tumor Growth in Dunning H Rat, Day 35 (Dunning H Tumor; Day 35, corrected group mean): 1214.57 mm^3
- Δv/Δt (day 35-day 0) (Dunning H Tumor; average daily growth rate from corrected mean tumor size): 25.64 mm^3/day
- Tumor Growth in PC-82 Human Tumor in Male Nude Mice, Day 7 (PC-82 Human Tumor; Day 7, corrected group mean): 222.7 mm^3
- Tumor Growth in PC-82 Human Tumor in Male Nude Mice, Day 15 (PC-82 Human Tumor; Day 15, corrected group mean): 262.9 mm^3
- Tumor Growth in PC-82 Human Tumor in Male Nude Mice, Day 21 (PC-82 Human Tumor; Day 21, corrected group mean): 319.7 mm^3
- Tumor Growth in PC-82 Human Tumor in Male Nude Mice, Day 28 (PC-82 Human Tumor; Day 28, corrected group mean): 563.4 mm^3
- Tumor Growth in PC-82 Human Tumor in Male Nude Mice, Day 35 (PC-82 Human Tumor; Day 35, corrected group mean): 479.3 mm^3
- Tumor Growth in PC-82 Human Tumor in Male Nude Mice, Day -4 (PC-82 Human Tumor; Day -4 (before treatment), corrected group mean): 138.7 mm^3
- Δv/Δt (day 35-day 7) (PC-82 Human Tumor; average tumor growth over 28 days from corrected group means): 9.16 mm^3/day
